In PubChem BioAssay (NCI):
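GI50 marks 50% less growth. The concentration for full growth arrest is given as TGI.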

Legend:
Test in all cases: growth of human tumour cells (NCI), 384-well format
LOX IMVI melanoma = system: LOX IMVI melanoma
SF-268 CNS = system: SF-268 CNS
HT29 colon = system: HT29 colon
EKVX NSCLC = system: EKVX NSCLC
HOP-92 NSCLC = system: HOP-92 NSCLC
MCF7 breast = system: MCF7 breast
SF-295 CNS = system: SF-295 CNS
CCRF-CEM leukemia = system: CCRF-CEM leukemia
SW-620 colon = system: SW-620 colon
DU-145 prostate = system: DU-145 prostate
NCI-H460 NSCLC = system: NCI-H460 NSCLC
SK-MEL-28 melanoma = system: SK-MEL-28 melanoma
HS 578T breast = system: HS 578T breast
HOP-62 NSCLC = system: HOP-62 NSCLC
NCI-H522 lung = system: NCI-H522 lung
HL-60(TB) leukemia = system: HL-60(TB) leukemia
BT-549 breast = system: BT-549 breast
A549 NSCLC = system: A549 NSCLC
UACC-62 melanoma = system: UACC-62 melanoma
MOLT-4 leukemia = system: MOLT-4 leukemia
K-562 leukemia = system: K-562 leukemia
SNB-75 CNS = system: SNB-75 CNS
SK-MEL-5 melanoma = system: SK-MEL-5 melanoma
UO-31 renal = system: UO-31 renal
M14 melanoma = system: M14 melanoma
ACHN renal = system: ACHN renal
RXF 393 renal = system: RXF 393 renal
HCT-15 colon = system: HCT-15 colon

Q: `O=C(NCCCc1cn[nH]c1)c1ccc(-c2ccncc2)c(C#Cc2ccc(F)cc2)c1` was tested. Which TGI (LOX IMVI melanoma) did it give?
A: 15.6 nM

Q: What about the GI50 (SF-268 CNS) of the same molecule?
A: < 10 nM

Q: And the TGI (SF-268 CNS)?
A: < 10 nM

Q: And the GI50 (HT29 colon)?
A: < 10 nM

Q: And the TGI (HT29 colon)?
A: < 10 nM

Q: What about the GI50 (EKVX NSCLC) of the same molecule?
A: < 10 nM

Q: What about the TGI (EKVX NSCLC) of the same molecule?
A: < 10 nM

Q: What about the GI50 (HOP-92 NSCLC) of the same molecule?
A: < 10 nM

Q: And the TGI (HOP-92 NSCLC)?
A: < 10 nM

Q: What about the GI50 (MCF7 breast) of the same molecule?
A: 13 nM

Q: And the TGI (MCF7 breast)?
A: 26.9 nM

Q: What about the GI50 (SF-295 CNS) of the same molecule?
A: < 10 nM

Q: What about the TGI (SF-295 CNS) of the same molecule?
A: < 10 nM

Q: What about the GI50 (CCRF-CEM leukemia) of the same molecule?
A: < 10 nM

Q: And the TGI (CCRF-CEM leukemia)?
A: < 10 nM

Q: And the GI50 (SW-620 colon)?
A: < 10 nM

Q: What about the TGI (SW-620 colon) of the same molecule?
A: < 10 nM

Q: And the GI50 (DU-145 prostate)?
A: < 10 nM

Q: What about the TGI (DU-145 prostate) of the same molecule?
A: < 10 nM

Q: What about the GI50 (NCI-H460 NSCLC) of the same molecule?
A: < 10 nM

Q: And the TGI (NCI-H460 NSCLC)?
A: 13.5 nM

Q: What about the GI50 (SK-MEL-28 melanoma) of the same molecule?
A: < 10 nM

Q: And the TGI (SK-MEL-28 melanoma)?
A: < 10 nM

Q: What about the GI50 (HS 578T breast) of the same molecule?
A: < 10 nM

Q: And the TGI (HS 578T breast)?
A: < 10 nM

Q: What about the GI50 (HOP-62 NSCLC) of the same molecule?
A: < 10 nM

Q: What about the TGI (HOP-62 NSCLC) of the same molecule?
A: < 10 nM

Q: And the GI50 (NCI-H522 lung)?
A: < 10 nM

Q: And the TGI (NCI-H522 lung)?
A: < 10 nM

Q: And the GI50 (HL-60(TB) leukemia)?
A: < 10 nM

Q: And the TGI (HL-60(TB) leukemia)?
A: < 10 nM

Q: What about the GI50 (BT-549 breast) of the same molecule?
A: < 10 nM

Q: What about the TGI (BT-549 breast) of the same molecule?
A: < 10 nM

Q: What about the GI50 (A549 NSCLC) of the same molecule?
A: < 10 nM

Q: And the TGI (A549 NSCLC)?
A: < 10 nM

Q: What about the GI50 (UACC-62 melanoma) of the same molecule?
A: < 10 nM

Q: What about the TGI (UACC-62 melanoma) of the same molecule?
A: < 10 nM

Q: And the GI50 (MOLT-4 leukemia)?
A: < 10 nM

Q: And the TGI (MOLT-4 leukemia)?
A: < 10 nM

Q: And the GI50 (K-562 leukemia)?
A: < 10 nM

Q: And the TGI (K-562 leukemia)?
A: < 10 nM

Q: And the GI50 (SNB-75 CNS)?
A: < 10 nM

Q: And the TGI (SNB-75 CNS)?
A: < 10 nM

Q: What about the GI50 (SK-MEL-5 melanoma) of the same molecule?
A: < 10 nM

Q: What about the TGI (SK-MEL-5 melanoma) of the same molecule?
A: < 10 nM

Q: What about the GI50 (UO-31 renal) of the same molecule?
A: < 10 nM

Q: What about the TGI (UO-31 renal) of the same molecule?
A: < 10 nM

Q: And the GI50 (M14 melanoma)?
A: < 10 nM

Q: And the TGI (M14 melanoma)?
A: < 10 nM

Q: What about the GI50 (ACHN renal) of the same molecule?
A: < 10 nM

Q: And the TGI (ACHN renal)?
A: < 10 nM

Q: And the GI50 (RXF 393 renal)?
A: < 10 nM

Q: And the TGI (RXF 393 renal)?
A: < 10 nM

Q: What about the GI50 (HCT-15 colon) of the same molecule?
A: < 10 nM

Q: And the TGI (HCT-15 colon)?
A: < 10 nM
